In US9212182B2, “Bicyclic sulfonamide compounds as sodium channel inhibitors” (AMGEN INC., priority 2013, dated 2015):
pIC50: −log10 of the molar value.

Molecular target: Nav 1.7 (Homo sapiens (Human), UniProt Q15858)
Assay: in-vitro Nav 1.7 PX (IC50)
Type: cell-based
Conditions: in-vitro Nav 1.7 PX data

Chain of Nav 1.7 (Q15858 whole entry): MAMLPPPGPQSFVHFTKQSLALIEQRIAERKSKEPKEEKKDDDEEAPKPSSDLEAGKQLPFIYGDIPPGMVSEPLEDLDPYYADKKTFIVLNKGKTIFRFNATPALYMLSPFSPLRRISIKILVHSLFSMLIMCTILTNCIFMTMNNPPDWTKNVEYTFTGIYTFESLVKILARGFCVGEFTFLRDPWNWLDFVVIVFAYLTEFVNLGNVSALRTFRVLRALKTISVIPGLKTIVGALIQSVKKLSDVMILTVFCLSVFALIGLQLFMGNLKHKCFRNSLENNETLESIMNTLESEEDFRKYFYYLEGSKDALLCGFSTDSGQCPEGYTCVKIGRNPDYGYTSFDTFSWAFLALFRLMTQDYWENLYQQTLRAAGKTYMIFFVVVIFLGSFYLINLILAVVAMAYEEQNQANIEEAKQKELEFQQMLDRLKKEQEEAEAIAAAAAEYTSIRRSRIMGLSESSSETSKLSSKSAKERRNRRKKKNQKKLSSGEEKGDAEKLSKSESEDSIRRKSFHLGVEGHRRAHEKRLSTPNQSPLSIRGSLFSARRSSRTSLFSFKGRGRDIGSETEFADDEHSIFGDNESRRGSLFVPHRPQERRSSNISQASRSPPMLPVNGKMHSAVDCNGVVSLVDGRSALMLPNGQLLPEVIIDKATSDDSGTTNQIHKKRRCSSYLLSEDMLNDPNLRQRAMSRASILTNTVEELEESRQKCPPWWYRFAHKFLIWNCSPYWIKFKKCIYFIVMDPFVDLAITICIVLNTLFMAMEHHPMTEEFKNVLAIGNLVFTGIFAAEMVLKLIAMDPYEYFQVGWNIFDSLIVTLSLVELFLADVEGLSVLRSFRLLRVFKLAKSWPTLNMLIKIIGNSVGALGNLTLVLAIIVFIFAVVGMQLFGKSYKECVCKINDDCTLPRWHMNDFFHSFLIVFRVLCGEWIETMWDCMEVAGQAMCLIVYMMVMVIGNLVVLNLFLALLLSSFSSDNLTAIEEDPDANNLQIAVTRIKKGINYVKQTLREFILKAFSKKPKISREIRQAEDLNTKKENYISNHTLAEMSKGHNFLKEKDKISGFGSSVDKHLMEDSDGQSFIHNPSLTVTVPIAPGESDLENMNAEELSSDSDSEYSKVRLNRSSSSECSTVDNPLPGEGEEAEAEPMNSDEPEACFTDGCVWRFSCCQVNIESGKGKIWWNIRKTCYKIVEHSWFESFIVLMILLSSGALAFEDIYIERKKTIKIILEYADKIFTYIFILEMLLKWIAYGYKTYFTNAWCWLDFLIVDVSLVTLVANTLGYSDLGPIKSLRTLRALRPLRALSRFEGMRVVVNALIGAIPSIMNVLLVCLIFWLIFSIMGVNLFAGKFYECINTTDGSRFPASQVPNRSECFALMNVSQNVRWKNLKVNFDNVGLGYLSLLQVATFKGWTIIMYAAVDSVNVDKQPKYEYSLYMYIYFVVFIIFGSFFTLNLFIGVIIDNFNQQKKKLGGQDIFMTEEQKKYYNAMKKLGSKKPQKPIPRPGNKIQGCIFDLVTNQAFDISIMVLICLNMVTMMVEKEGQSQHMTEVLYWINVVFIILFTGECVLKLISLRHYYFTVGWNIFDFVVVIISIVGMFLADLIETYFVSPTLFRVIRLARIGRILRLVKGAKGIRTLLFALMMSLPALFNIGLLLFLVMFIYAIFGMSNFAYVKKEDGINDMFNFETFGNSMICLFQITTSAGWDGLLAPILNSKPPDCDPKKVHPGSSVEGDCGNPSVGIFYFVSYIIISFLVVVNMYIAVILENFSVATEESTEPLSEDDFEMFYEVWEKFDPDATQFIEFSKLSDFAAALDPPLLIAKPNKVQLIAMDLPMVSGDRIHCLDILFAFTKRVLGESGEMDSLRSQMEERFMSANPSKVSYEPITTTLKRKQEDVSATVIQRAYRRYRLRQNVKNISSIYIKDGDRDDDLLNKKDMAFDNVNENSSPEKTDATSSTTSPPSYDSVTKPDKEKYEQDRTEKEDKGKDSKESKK

Compound	pIC50
COc1nc(OC2CCC2)c(Cl)cc1-n1c(=O)ccc2cc(S(=O)(=O)Nc3ccon3)ccc21 [Example 821, 1-(5-chloro-6-(cyclobutyloxy)-2-methoxy-3-pyridinyl)-N-3-isoxazolyl-2-oxo-1,2-dihydro-6-quinolinesulfonamide]	5.33
COc1nc(OCC2(C)CC2)c(Cl)cc1-n1c(=O)ccc2cc(S(=O)(=O)Nc3ccon3)ccc21 [Example 822, 1-(5-chloro-2-methoxy-6-((1-methylcyclopropyl)methoxy)-3-pyridinyl)-N-3-isoxazolyl-2-oxo-1,2-dihydro-6-quinolinesulfonamide]	6.34
COc1cc(-c2cccc(OC(C)C)c2)c(F)cc1-n1c(=O)ccc2cc(S(=O)(=O)Nc3ccon3)ccc21 [Example 823, 1-(2-fluoro-5-methoxy-3′-(1-methylethoxy)-4-biphenylyl)-N-3-isoxazolyl-2-oxo-1,2-dihydro-6-quinolinesulfonamide]	7.60
COc1nc(OCC2CCCC2)c(Cl)cc1-n1c(=O)ccc2cc(S(=O)(=O)Nc3ccon3)ccc21 [Example 824, 1-(5-chloro-6-(cyclopentylmethoxy)-2-methoxy-3-pyridinyl)-N-3-isoxazolyl-2-oxo-1,2-dihydro-6-quinolinesulfonamide]	6.66
COc1nc(OC2CCCC2)c(Cl)cc1-n1c(=O)ccc2cc(S(=O)(=O)Nc3ccon3)ccc21 [Example 825, 1-(5-chloro-6-(cyclopentyloxy)-2-methoxy-3-pyridinyl)-N-3-isoxazolyl-2-oxo-1,2-dihydro-6-quinolinesulfonamide]	6.48
COc1cc(-c2cccc(OC(C)C)c2)ccc1-n1c(=O)ccc2cc(S(=O)(=O)Nc3ncco3)ccc21 [Example 826, 1-(3-methoxy-3′-(1-methylethoxy)-4-biphenylyl)-N-1,3-oxazol-2-yl-2-oxo-1,2-dihydro-6-quinolinesulfonamide]	6.85
COc1cc(-c2cccc(OC(C)C)c2)ccc1-n1c(=O)ccc2cc(S(=O)(=O)Nc3ncc(F)cn3)ccc21 [Example 827, N-(5-fluoro-2-pyrimidinyl)-1-(3-methoxy-3′-(1-methylethoxy)-4-biphenylyl)-2-oxo-1,2-dihydro-6-quinolinesulfonamide]	6.75
COc1cc(-c2cccc(OC(C)C)c2)ccc1-n1c(=O)ccc2cc(S(=O)(=O)Nc3ncccn3)ccc21 [Example 828, 1-(3-methoxy-3′-(1-methylethoxy)-4-biphenylyl)-2-oxo-N-2-pyrimidinyl-1,2-dihydro-6-quinolinesulfonamide]	6.21
COCCCOc1nc(OC)c(-n2c(=O)ccc3cc(S(=O)(=O)Nc4ccon4)ccc32)cc1Cl [Example 831, 1-(5-chloro-2-methoxy-6-(3-methoxypropoxy)-3-pyridinyl)-N-3-isoxazolyl-2-oxo-1,2-dihydro-6-quinolinesulfonamide]	5.42
COc1nc(OCC(F)(F)C(F)(F)F)c(Cl)cc1-n1c(=O)ccc2cc(S(=O)(=O)Nc3ccon3)ccc21 [Example 832, 1-(5-chloro-2-methoxy-6-(2,2,3,3,3-pentafluoropropoxy)-3-pyridinyl)-N-3-isoxazolyl-2-oxo-1,2-dihydro-6-quinolinesulfonamide]	6.79
COc1nc(OCC(F)(F)F)c(Cl)cc1-n1c(=O)ccc2cc(S(=O)(=O)Nc3ccon3)ccc21 [Example 833, 1-(5-chloro-2-methoxy-6-(2,2,2-trifluoroethoxy)-3-pyridinyl)-N-3-isoxazolyl-2-oxo-1,2-dihydro-6-quinolinesulfonamide]	6.25
COc1ccc(-c2ccc(F)c(C#N)c2)cc1-n1c(=O)ccc2cc(S(=O)(=O)Nc3ccon3)ccc21 [Example 834, 1-(3′-cyano-4′-fluoro-4-methoxy-3-biphenylyl)-N-3-isoxazolyl-2-oxo-1,2-dihydro-6-quinolinesulfonamide]	6.53
COc1ccc(-c2ccccc2F)cc1-n1c(=O)ccc2cc(S(=O)(=O)Nc3ccon3)ccc21 [Example 836, 1-(2′-fluoro-4-methoxy-3-biphenylyl)-N-3-isoxazolyl-2-oxo-1,2-dihydro-6-quinolinesulfonamide]	6.92
